Measurements reported in patent publication US11938129B2, “Methods and compositions for the treatment of vascular disease” (THE GENERAL HOSPITAL CORPORATION, priority 2018, dated 2024).
“Also recorded” adds a separate entry of the source.

How the values were obtained:
[1] = tested on: a-SMA and SM22a; experiment: immunofluorescence of contractile proteins in ligated carotids; assay type: in vivo, mouse; conditions: ligated carotids of treated mice
Description: (§1) All mice used in this study were cared for under strict compliance with the Partners Institutional Animal Care and Use Committee (IACUC), regulated by the United States Public Health Service (USPHS). Carotid ligations were performed in 10 week old mice. Briefly, animals were anesthetized using intraperitoneal ketamine/xylazine (80 and 12 mg/kg, respectively) followed by a small incision in the neck to expose the carotid artery. Then the left carotid was ligated at the carotid bifurcation level using a 8-0 silk suture. At 21 days mice were sacrificed and carotids were collected for histological analysis. Approximately 98% of wild type mice developed stenotic lesions. Mice that developed thrombosis of the ligated carotid were excluded from the study (−1¬2%). Malatl knockout mice were kindly provided by Dr. David Spector (Cold Spring Harbor, N.Y.). Hdac9 flox/flox/Talgn-cre mice were generated as previously reported (10). Ezh2 fl/fl/ (STOCK Ezh2tm2Sho/J) and Myh11-cre-GFP (B6.Cg-Tg(Myh11-cre,-EGFP)2Mik/J) were crossed to generate smooth muscle cell-Ezh2 deficient mice. All above mice and wild-type mice (C57BL/6J) were purchased from Jackson laboratory. For tissue analysis, animals were euthanized through inhalational isoflurane (Sigma, St, Louis, Mo.) prior to tissue collection. All carotid ligation (left carotid) procedures were performed at 10 weeks of age. All experiments were performed on male and female animals at a 1:1 ratio.
Left and right carotids were cryosectioned using OCT standard protocol and sectioning. The right carotid artery was unligated and served as an internal control. Neoinitima analysis was performed from hematoxylin and eosin (H & E) stained horizontal cross-sections embedded in Optimal Cutting Temperature compound (OCT). Briefly, the distal 0.2 mm of carotid from the ligation suture site were discarded followed by generation of 20 slides (10 pM). Slides 1, 5, 10, and 15 were H&E stained for quantification of neointima. For quantification of the neointima, internal and external elastic lamina perimeters and medial thickness from 4 quadrants were measured and averaged using Image J software from the National Institutes of Health (NIH). Slides 2-4, 6-9, and 11-14 were used for immunofluorescence staining.
Cohorts of 10-week-old wild-type mice were treated with oral administration in drinking water of GSK343 24 hrs before left carotid ligation and following treatment for 3 weeks. GSK343 inhibitor (25 mg) was dissolved in 1 mL of DMSO to obtain a stock solution of 46 mM. Then, 250 ml of drinking water was supplemented with 250 pl of GSK343 stock solution. Control group for was given with equal volumes of sterile water. Bottles containing GSK343 were replaced with fresh water supplied with drug every 3 days. […]

[2] = tested on: PDGFR; experiment: immunofluorescence of p-PDGFR in ligated carotid; assay type: in vivo, mouse; conditions: media and intima of carotid arteries
Description: as §1, with “Ezh2 fl/fl/ (STOCK Ezh2tm2Sho/J) and Myh11-cre-GFP (B6.Cg-Tg(Myh11-cre,-EGFP)2Mik/J) were crossed to generate smooth muscle cell-Ezh2 deficient mice. All above mice and wild-type mice (C57BL/6J) were purchased from Jackson laboratory. For tissue analysis, animals were euthanized through inhalational isoflurane (Sigma, St, Louis, Mo.) prior to tissue collection. All carotid ligation (left carotid) procedures were performed at 10 weeks of age. All experiments were performed on male and female animals at a 1:1 ratio.” left out
(§2) Left and right carotids were cryosectioned using OCT standard protocol and sectioning. […] Slides 1, 5, 10, and 15 were H&E stained for quantification of neointima. For quantification of the neointima, internal and external elastic lamina perimeters and medial thickness from 4 quadrants were measured and averaged using Image J software from the National Institutes of Health (NIH). […]

[3] = tested on: FAK; experiment: immunofluorescence of p-FAK in ligated carotid; assay type: in vivo, mouse; conditions: media and intima of carotid arteries
Description: as §1, with “Ezh2 fl/fl/ (STOCK Ezh2tm2Sho/J) and Myh11-cre-GFP (B6.Cg-Tg(Myh11-cre,-EGFP)2Mik/J) were crossed to generate smooth muscle cell-Ezh2 deficient mice. All above mice and wild-type mice (C57BL/6J) were purchased from Jackson laboratory. For tissue analysis, animals were euthanized through inhalational isoflurane (Sigma, St, Louis, Mo.) prior to tissue collection. All carotid ligation (left carotid) procedures were performed at 10 weeks of age. All experiments were performed on male and female animals at a 1:1 ratio.” left out
as §2

[4] = tested on: Hdac9; experiment: immunofluorescence of Hdac9 in ligated carotid; assay type: in vivo, mouse; conditions: arterial media and intima of carotid arteries
Description: as §1, with “Ezh2 fl/fl/ (STOCK Ezh2tm2Sho/J) and Myh11-cre-GFP (B6.Cg-Tg(Myh11-cre,-EGFP)2Mik/J) were crossed to generate smooth muscle cell-Ezh2 deficient mice. All above mice and wild-type mice (C57BL/6J) were purchased from Jackson laboratory. For tissue analysis, animals were euthanized through inhalational isoflurane (Sigma, St, Louis, Mo.) prior to tissue collection. All carotid ligation (left carotid) procedures were performed at 10 weeks of age. All experiments were performed on male and female animals at a 1:1 ratio.” left out
as §2

[5] = tested on: Mmp9; experiment: immunofluorescence of Mmp9 in ligated carotid; assay type: in vivo, mouse; conditions: arterial media and intima of carotid arteries
Description: as §1, with “Ezh2 fl/fl/ (STOCK Ezh2tm2Sho/J) and Myh11-cre-GFP (B6.Cg-Tg(Myh11-cre,-EGFP)2Mik/J) were crossed to generate smooth muscle cell-Ezh2 deficient mice. All above mice and wild-type mice (C57BL/6J) were purchased from Jackson laboratory. For tissue analysis, animals were euthanized through inhalational isoflurane (Sigma, St, Louis, Mo.) prior to tissue collection. All carotid ligation (left carotid) procedures were performed at 10 weeks of age. All experiments were performed on male and female animals at a 1:1 ratio.” left out
as §2

[6] = tested on: neointimal formation in ligated carotid; experiment: murine carotid artery ligation model: neointimal formation and stenosis (histology); assay type: in vivo, mouse; conditions: wild-type mice, left carotid ligation, 21 days; GSK343 in drinking water from 24 hrs before ligation for 3 weeks; GapmeR 15 nmol 24 hrs before and 7 days post-ligation
Description: as §1, with “Ezh2 fl/fl/ (STOCK Ezh2tm2Sho/J) and Myh11-cre-GFP (B6.Cg-Tg(Myh11-cre,-EGFP)2Mik/J) were crossed to generate smooth muscle cell-Ezh2 deficient mice. All above mice and wild-type mice (C57BL/6J) were purchased from Jackson laboratory. For tissue analysis, animals were euthanized through inhalational isoflurane (Sigma, St, Louis, Mo.) prior to tissue collection. All carotid ligation (left carotid) procedures were performed at 10 weeks of age. All experiments were performed on male and female animals at a 1:1 ratio.” left out
as §2

[7] = tested on: MMP2 and MMP9 activity; experiment: in vivo MMP activity (MMPSense 750 FAST) after carotid ligation; parameters: species or system mouse; conditions: 24 h post injection, ligated mice
Description: Mice were tail vein injected with 600 uL of MMPSense 750 FAST, a near-infrared fluorescence sensor for MMP2 and MMP9 activity, (PerkinElmer, USA). Mice were sacrificed 24 h post injection and aortas were dissected and analyzed using a Kodak image station 4000MM Pro for macroscopic fluorescence reflectance molecular imaging.
Cohorts of 10-week-old wild-type mice were treated with oral administration in drinking water of GSK343 24 hrs before left carotid ligation and following treatment for 3 weeks. GSK343 inhibitor (25 mg) was dissolved in 1 mL of DMSO to obtain a stock solution of 46 mM. Then, 250 ml of drinking water was supplemented with 250 pl of GSK343 stock solution. Control group for was given with equal volumes of sterile water. Bottles containing GSK343 were replaced with fresh water supplied with drug every 3 days. For Malatl antisense LNA treatments, cohorts of 10-week-old wild-type mice were injected with 15 nmol in saline solution 24 hrs before left carotid ligation following by a second injection 7 days post-ligation.

GapmeR-Malatl: GapmeR antisense oligonucleotide against MALAT1, GTCACAATGCATTCTA (SEQ ID NO: 1) (LNA gapmer, pattern not given here)
expression of contractile proteins such as a-SMA and SM22a [1]: improved the expression of contractile proteins | phosphorylation of PDGFR [2]: dramatic reduction | phosphorylation of FAK [3]: dramatic reduction | accumulation of Hdac9 [4]: decreased accumulation | accumulation of Mmp9 [5]: decreased accumulation | extent of the stenotic response / neointimal formation [6]: significant inhibition of neointimal formation; also recorded: dramatically improved the extent of the stenotic response | activity of MMPs [7]: Inhibition of Mmp activity; also recorded: inhibited the activity of MMPs
